# Columns and labels:
# hSA = molecular target: T1, hSA (Homo sapiens, UniProt P02768); experiment: Reaction phenotyping assay of AB23A hydrolysis, hSA; format: in vitro ADME; conditions: hSA 500 μg/mL (Figure 3), AB23A 20 μM, 60 min, pH 7.4 at 37°C
# T1 construct: purchased Sigma-Aldrich Lot#SLCC9268
# Description: The hydrolytic rates of AB23A in different human recombinant enzymes (hCES1A, hCES2A, hPL, hIAH1, hNotum, hAchE, hBchE, hSA, hCTSA, hMAGL) were assayed. […] After incubation for 1 h at 37°C, ice-cold acetonitrile was added to terminate the reaction and precipitate proteins. The supernatants by centrifuging were used to quantify the formation rates of AB by LC-UV analysis. The detection wavelength of AB was 196 nm.
# [1] = Stability of AB23A in PBS under physiological conditions; format: physicochemical; conditions: pH 7.4 at 37°C
# Description: AB23A and its hydrolytic metabolite were separated by ACQUITY UPLC I-Class plus system (Waters Corporation, Milford, United States) coupled with ACQUITY UPLC HSS T3 (100 mm × 2.1 mm, 1.8 μm, Waters, United States), and identified by using Q-Exactive quadru-pole-Orbitrap mass spectrometer. The mobile phases consisted of 0.1% formic acid in water (A) and acetonitrile (B) with the elution gradients were as follows: 0–2 min, 5% B, 2–4 min, 5%–30% B, 4–8 min, 30%–50% B, 8–10 min, 50%–80% B, 10–14 min, 80%–100%, 14–15 min, 100% B, 15–15.1 min, 100%–5% B, 15.1–16 min, 5% B. The flow rate was set at 0.35 mL/min, while the temperature of chromatographic column was maintained at 45°C. The mass range was set from m/z 80 to 1,200. Other MS conditions were as follows: Resolution and AGC target were set at 30000 and 1e^6, the maximum IT was 50 ms and loop count was set 10. (N) CE/stepped (N)CE was set 10, 20, 40 ev. All data were analyzed by PeakView 2.2 software and Thermo Xcalibur.
# The incubation conditions were as follows: the classic incubation system included 100 mM potassium phosphate buffer (PBS, pH 7.4), enzyme sources, and AB23A. In all incubations, PBS and enzyme sources were pre-incubation at 37 °C for 3 min and the reaction was started by adding AB23A (the organic solvent content at most 1%). […]
# [2] = AB23A hydrolysis in human kidney microsomes; format: in vitro ADME
# Description: The hydrolytic half-lives (t1/2) of AB23A in human plasma and different human tissue preparations were carried out according to the procedure of in vitro metabolic stability studies ([Ge et al., 2013]). The incubation mixture (1,000 μL) consisted of PBS (pH 7.4), enzyme sources (HLMs/HIMs/human plasma) and AB23A. 25% diluted human plasma was used, the protein concentrations of other tissue microsomes were 0.1 mg/mL. The 100 μL incubation mixture was moved to another containing ice-cold acetonitrile tube at different time points (0, 5, 15, 30, 45, 60, 90, 120 min). All samples were centrifuged for 30 min at 20,000 g 4°C and took the supernatants for LC-UV analysis.
# The incubation conditions were as follows: the classic incubation system included 100 mM potassium phosphate buffer (PBS, pH 7.4), enzyme sources, and AB23A. In all incubations, PBS and enzyme sources were pre-incubation at 37 °C for 3 min and the reaction was started by adding AB23A (the organic solvent content at most 1%). After reacting 1 h, ice-cold acetonitrile was added to terminate the reaction and precipitate proteins. The samples were centrifuged for 30 min at 20000 × g, 4 °C, and the supernatants were taken for further LC-UV analysis.
# T1 sequence (P02768 25-609): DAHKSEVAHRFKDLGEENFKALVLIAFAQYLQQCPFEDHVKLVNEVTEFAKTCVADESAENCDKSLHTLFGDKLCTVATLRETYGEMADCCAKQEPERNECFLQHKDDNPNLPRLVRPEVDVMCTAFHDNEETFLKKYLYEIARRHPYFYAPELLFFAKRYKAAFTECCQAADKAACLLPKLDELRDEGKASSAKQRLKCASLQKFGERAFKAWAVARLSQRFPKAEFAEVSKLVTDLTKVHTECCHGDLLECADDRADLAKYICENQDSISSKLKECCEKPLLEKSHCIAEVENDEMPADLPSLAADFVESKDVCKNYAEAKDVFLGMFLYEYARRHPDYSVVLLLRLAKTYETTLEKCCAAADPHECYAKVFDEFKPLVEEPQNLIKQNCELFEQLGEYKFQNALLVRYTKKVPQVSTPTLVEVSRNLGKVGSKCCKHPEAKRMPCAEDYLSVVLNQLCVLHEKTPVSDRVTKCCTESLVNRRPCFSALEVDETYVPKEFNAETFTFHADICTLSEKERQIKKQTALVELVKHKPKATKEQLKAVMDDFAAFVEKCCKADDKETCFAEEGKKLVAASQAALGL
structure (smiles),measurement,setting,value
"CC(=O)O[C@H](C[C@@H](C)C1=C2C[C@H](O)C3[C@@]4(C)CCC(=O)C(C)(C)C4CC[C@]3(C)[C@@]2(C)CC1)[C@H]1OC1(C)C (stereo partly drawn) [AB23A, Alisol B 23-acetate]",Hydrolytic rate (formation of AB) in reaction phenotyping,hSA,also catalyzed this hydrolytic reaction
same,Stability in PBS,[1],very stable
same,Formation of AB (hydrolytic metabolite) in HKMs,[2],trace amount of AB
